Measurements taken from patent US5202339A, “Hydantoin derivatives” (Mochida Pharmaceutical Co., Ltd., priority 1987, dated 1993).

Tests used:
[1] = tested on: Streptozotocin-Diabetic Rats; assay: Hypoglycemic Effects in Streptozotocin-Diabetic Rats (Experimental Example 4); format: in vivo, rat (male Wistar); conditions: Rattus norvegicus; STZ-diabetic rats, 100 mg/kg oral, 6 hrs after administration; read-out: Lowering rate of serum glucose (%)
Protocol: Diabetic rats were produced according to the method of Junod et al. (A. Junod et al., J. Clin. Invest., 48, 2129 (1969)). Briefly, male Wistar rats were given 26.5 mg/kg of streptozotocin (STZ) intravenously. Four days later, the rats with serum glucose levels of between 400 and 500 mg/dl were used. After being fasted for 4 hrs, groups of 5 diabetic rats were orally administered with the compounds of the present invention or gliclazide in a dose of 100 mg/kg. Blood sample were collected from the orbital vein before and 6 hrs after the administration. Serum glucose levels were determined by the enzymatic method with an autoanalyzer (Cobas Fara®, Roche).

[2] = molecular target: T1, rat lens aldose reductase (Rattus norvegicus, UniProt P07943); assay: inhibitory activity on rat lens aldose reductase (Experimental Example 1); format: biochemical; conditions: for IC50: pH 6.2, 10 mM DL-glyceraldehyde, 0.16 mM NADPH; for potency relative to reference compound A: ratio in words
T1 construct: rat lens aldose reductase; from tissue; host or cells: rat lens
Protocol: The inhibitory activities of hydantoin derivatives on rat lens aldose reductase were measured according to the procedure of Inagaki et al. (K. Inagaki et al., Arch. Biochem. Biophys., 216, 337 (1982)) with slight modifications. Assays were performed in 0.1M phosphate buffer (pH 6.2) containing 0.4M ammonium sulfate, 10 mM DL-glyceraldehyde, 0.16 mM nicotinamide adenine dinucleotide phosphate, reduced form (NADPH) and aldose reductase (0.010-0.016 units) in a total volume of 1.0 ml. To this mixture was added 10 μl of the solution of each hydantoin derivative to be tested, and the decrease in absorbance at 340 nm was measured with a spectrophotometer.
The concentrations of typical hydantoin derivatives of the present invention required to produce 50% inhibition are shown in table 1.

[3] = molecular target: T2, bovine lens aldose reductase (Bos taurus, UniProt P16116); assay: inhibitory activity on bovine lens aldose reductase (Experimental Example 2); format: biochemical; conditions: for IC50: pH 6.2, 10 mM DL-glyceraldehyde, 0.16 mM NADPH
T2 construct: bovine lens aldose reductase preparation was used; from tissue; host or cells: bovine lens
Protocol: Assays were performed in 0.1M phosphate buffer (pH 6.2) containing 0.4M ammonium sulfate, 10 mM DL-glyceraldehyde, 0.16 mM nicotinamide adenine dinucleotide phosphate, reduced form (NADPH) and aldose reductase (0.010-0.016 units) in a total volume of 1.0 ml. To this mixture was added 10 μl of the solution of each hydantoin derivative to be tested, and the decrease in absorbance at 340 nm was measured with a spectrophotometer.

ICR strain mice = assay: acute toxicity in mice (Experimental Example 3); format: in vivo; conditions: 1 g/kg, oral, groups of 5 ICR mice
Description: Hydantoin derivatives of the present invention were examined for acute toxicity.

Row | SMILES | inhibition in vivo at 100 mg/kg [1] | IC50 [2] | potency relative to reference compound A [2] | inhibitory activity against aldose reductase compared with reference compound B ([3]; in words) | IC50 [3] | acute toxicity: change observed over the one-week period after administration (ICR strain mice) | potency compared with compound 13 and 15 ([3]; in words)
1 | O=C1CN(S(=O)(=O)c2ccc3ccccc3c2Cl)C(=O)N1 [Compound 1, 1-(1-chloronaphthalen-2-ylsulfonyl)hydantoin] | 37.2% | 290 nM | – | – | – | – | –
2 | O=C1CN(S(=O)(=O)c2ccc3c(Cl)cccc3c2)C(=O)N1 [Compound 3, 1-(5-chloronaphthalen-2-ylsulfonyl)hydantoin] | 19% | 190 nM | – | – | – | – | –
3 | O=C1CN(S(=O)(=O)c2cc3ccccc3cc2Br)C(=O)N1 [Compound 9, 1-(3-bromonaphthalen-2-ylsulfonyl)hydantoin] | 17.4% | 350 nM | – | – | – | – | –
4 | Cc1cc2ccccc2cc1S(=O)(=O)N1CC(=O)NC1=O [Compound 12, 1-(3-methylnaphthalen-2-ylsulfonyl)hydantoin] | – | 140 nM | – | – | – | – | –
5 | Cc1ccc2cc(S(=O)(=O)N3CC(=O)NC3=O)ccc2c1[N+](=O)[O-] [Compound 13, 1-(6-methyl-5-nitronaphthalen-2-yl-sulfonyl)hydantoin] | – | 27 nM | ten times or more potent | stronger inhibitory activities against aldose reductase | 100 nM | – | –
6 | Cc1ccc2ccc(S(=O)(=O)N3CC(=O)NC3=O)cc2c1 [Compound 14, 1-(7-methylnaphthalen-2-ylsulfonyl)hydantoin] | – | 350 nM | – | – | – | – | –
7 | COc1ccc2cc(S(=O)(=O)N3CC(=O)NC3=O)ccc2c1[N+](=O)[O-] [Compound 15, 1-(6-methoxy-5-nitronaphthalen-2-yl-sulfonyl)hydantoin] | – | 38 nM | ten times or more potent | stronger inhibitory activities against aldose reductase | 230 nM | – | –
8 | O=C1CN(S(=O)(=O)c2cc3ccccc3o2)C(=O)N1 [Compound 19, 1-(benzo[b]furan-2-ylsulfonyl)hydantoin] | 52.1% | – | – | – | – | no change was observed | –
9 | O=C1CN(S(=O)(=O)c2cc3cc(Cl)ccc3o2)C(=O)N1 [Compound 20, 1-(5-chlorobenzo[b]furan-2-ylsulfonyl)hydantoin] | 12.8% | – | – | – | 360 nM | no change was observed | –
10 | O=C1CN(S(=O)(=O)c2cc3cc(Br)ccc3o2)C(=O)N1 [Compound 21, 1-(5-bromobenzo[b]furan-2-ylsulfonyl)hydantoin] | 22.3% | – | – | – | 300 nM | no change was observed | –
11 | O=C1CN(S(=O)(=O)c2cc(Cl)sc2Cl)C(=O)N1 [Compound 24, 1-(2,5-dichlorothiophen-3-ylsulfonyl)hydantoin] | – | – | – | – | 290 nM | no change was observed | as potent as compound 13 and 15
12 | O=C1CN(S(=O)(=O)c2cc3c(Cl)cccc3s2)C(=O)N1 [Compound 40, 1-(4-chlorobenzo[b]thiophen-2-yl-sulfonyl)hydantoin] | 11% | – | – | – | 170 nM | no change was observed | –
13 | O=C1CN(S(=O)(=O)c2cc3c(Cl)c(Cl)ccc3o2)C(=O)N1 [Compound 44, 1-(4,5-dichlorobenzo[b]furan-2-yl-sulfonyl)hydantoin] | 21.1% | – | – | – | 61 nM | no change was observed | –
14 | O=C1CN(S(=O)(=O)c2cc3cc(Cl)c(Cl)cc3o2)C(=O)N1 [Compound 45, 1-(5,6-dichlorobenzo[b]furan-2-yl-sulfonyl)hydantoin] | 28.5% | – | – | – | 83 nM | no change was observed | –
15 | O=C1CN(S(=O)(=O)c2ccc3ccccc3c2)C(=O)N1 [Compound A, 1-(naphthalene-2-ylsulfonyl)hydantoin, reference compound] | – | 660 nM | – | – | – | – | –
